Test results reported in PubChem BioAssay (NCI).
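Where inhibition never reached the appropriate level, the endpoint shown equals the highest concentration tested. Otherwise, values were interpolated linearly from a five-concentration, 48-hour dose response in 96-well plates. At the TGI there is no net growth.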

Legend:
Experiment in all cases: DTP human tumour cell line panel, 48 h
786-0 renal = tested on: 786-0 renal
A498 renal = tested on: A498 renal
A549 NSCLC = tested on: A549 NSCLC
ACHN renal = tested on: ACHN renal
BT-549 breast = tested on: BT-549 breast
CAKI-1 renal = tested on: CAKI-1 renal
CCRF-CEM leukemia = tested on: CCRF-CEM leukemia
COLO 205 colon = tested on: COLO 205 colon
DU-145 prostate = tested on: DU-145 prostate
EKVX NSCLC = tested on: EKVX NSCLC
HCT-116 colon = tested on: HCT-116 colon
HCT-15 colon = tested on: HCT-15 colon
HL-60(TB) leukemia = tested on: HL-60(TB) leukemia
HOP-62 NSCLC = tested on: HOP-62 NSCLC
HS 578T breast = tested on: HS 578T breast
HT29 colon = tested on: HT29 colon
IGROV1 ovarian = tested on: IGROV1 ovarian
K-562 leukemia = tested on: K-562 leukemia
KM12 colon = tested on: KM12 colon
M14 melanoma = tested on: M14 melanoma
MCF7 breast = tested on: MCF7 breast
MDA-MB-231 breast = tested on: MDA-MB-231 breast
MDA-MB-435 = tested on: MDA-MB-435
MDA-N = tested on: MDA-N
MOLT-4 leukemia = tested on: MOLT-4 leukemia
NCI-H226 lung = tested on: NCI-H226 lung
NCI-H23 lung = tested on: NCI-H23 lung
NCI-H460 lung = tested on: NCI-H460 lung
NCI/ADR-RES ovarian = tested on: NCI/ADR-RES ovarian
OVCAR-3 ovarian = tested on: OVCAR-3 ovarian
OVCAR-5 ovarian = tested on: OVCAR-5 ovarian
OVCAR-8 ovarian = tested on: OVCAR-8 ovarian
PC-3 prostate = tested on: PC-3 prostate
RPMI-8226 leukemia = tested on: RPMI-8226 leukemia
RXF 393 renal = tested on: RXF 393 renal
SF-268 CNS = tested on: SF-268 CNS
SF-295 CNS = tested on: SF-295 CNS
SF-539 CNS = tested on: SF-539 CNS
SK-MEL-2 melanoma = tested on: SK-MEL-2 melanoma
SK-MEL-28 melanoma = tested on: SK-MEL-28 melanoma
SK-MEL-5 melanoma = tested on: SK-MEL-5 melanoma
SN12C renal = tested on: SN12C renal
SNB-19 CNS = tested on: SNB-19 CNS
SNB-75 CNS = tested on: SNB-75 CNS
SR leukemia = tested on: SR leukemia
SW-620 colon = tested on: SW-620 colon
T-47D breast = tested on: T-47D breast
TK-10 renal = tested on: TK-10 renal
U251 CNS = tested on: U251 CNS
UACC-257 melanoma = tested on: UACC-257 melanoma
UACC-62 melanoma = tested on: UACC-62 melanoma
UO-31 renal = tested on: UO-31 renal
HCC-2998 colon = tested on: HCC-2998 colon
LOX IMVI melanoma = tested on: LOX IMVI melanoma
MALME-3M melanoma = tested on: MALME-3M melanoma
NCI-H522 lung = tested on: NCI-H522 lung
OVCAR-4 ovarian = tested on: OVCAR-4 ovarian
SK-OV-3 ovarian = tested on: SK-OV-3 ovarian

`Cc1nc2c(=O)[nH]ncc2[nH]1` was tested, and the TGI (786-0 renal) was > 100 µM, the TGI (A498 renal) was > 100 µM and the TGI (A549 NSCLC) was > 100 µM. For the same compound, the TGI (ACHN renal) was > 100 µM, the TGI (BT-549 breast) was > 100 µM and the TGI (CAKI-1 renal) was > 100 µM. For the same compound, the TGI (CCRF-CEM leukemia) was > 100 µM, the TGI (COLO 205 colon) was > 100 µM and the TGI (DU-145 prostate) was > 100 µM. For the same compound, the TGI (EKVX NSCLC) was > 100 µM, the TGI (HCT-116 colon) was > 100 µM and the TGI (HCT-15 colon) was > 100 µM. The TGI (HL-60(TB) leukemia) was > 100 µM, the TGI (HOP-62 NSCLC) was > 100 µM and the TGI (HS 578T breast) was > 100 µM. For the same compound, the TGI (HT29 colon) was > 100 µM, the TGI (IGROV1 ovarian) was > 100 µM and the TGI (K-562 leukemia) was > 100 µM. For the same compound, the TGI (KM12 colon) was > 100 µM, the TGI (M14 melanoma) was > 100 µM and the TGI (MCF7 breast) was > 100 µM. The TGI (MDA-MB-231 breast) was > 100 µM, the TGI (MDA-MB-435) was > 100 µM and the TGI (MDA-N) was > 100 µM. The TGI (MOLT-4 leukemia) was > 100 µM, the TGI (NCI-H226 lung) was > 100 µM and the TGI (NCI-H23 lung) was > 100 µM. The TGI (NCI-H460 lung) was > 100 µM, the TGI (NCI/ADR-RES ovarian) was > 100 µM and the TGI (OVCAR-3 ovarian) was > 100 µM. For the same compound, the TGI (OVCAR-5 ovarian) was > 100 µM, the TGI (OVCAR-8 ovarian) was > 100 µM and the TGI (PC-3 prostate) was > 100 µM. For the same compound, the TGI (RPMI-8226 leukemia) was > 100 µM, the TGI (RXF 393 renal) was > 100 µM and the TGI (SF-268 CNS) was > 100 µM. For the same compound, the TGI (SF-295 CNS) was > 100 µM, the TGI (SF-539 CNS) was > 100 µM and the TGI (SK-MEL-2 melanoma) was > 100 µM. The TGI (SK-MEL-28 melanoma) was > 100 µM, the TGI (SK-MEL-5 melanoma) was > 100 µM and the TGI (SN12C renal) was > 100 µM. The TGI (SNB-19 CNS) was > 100 µM, the TGI (SNB-75 CNS) was > 100 µM and the TGI (SR leukemia) was > 100 µM. For the same compound, the TGI (SW-620 colon) was > 100 µM, the TGI (T-47D breast) was > 100 µM and the TGI (TK-10 renal) was > 100 µM. For the same compound, the TGI (U251 CNS) was > 100 µM, the TGI (UACC-257 melanoma) was > 100 µM and the TGI (UACC-62 melanoma) was > 100 µM. For the same compound, the TGI (UO-31 renal) was > 100 µM.
In the case of `C=C(C)c1cc(C(C)(C)C)cc(C(=C)C)c1S(C)(=O)=O`, the TGI (786-0 renal) is reported as > 100 µM, the TGI (A498 renal) is reported as > 100 µM and the TGI (A549 NSCLC) is reported as > 100 µM. For the same compound, the TGI (ACHN renal) was > 100 µM, the TGI (BT-549 breast) was > 100 µM and the TGI (CAKI-1 renal) was > 100 µM. For the same compound, the TGI (CCRF-CEM leukemia) was > 100 µM, the TGI (COLO 205 colon) was > 100 µM and the TGI (DU-145 prostate) was > 100 µM. The TGI (EKVX NSCLC) was > 100 µM, the TGI (HCC-2998 colon) was > 100 µM and the TGI (HCT-116 colon) was > 100 µM. The TGI (HCT-15 colon) was > 100 µM, the TGI (HL-60(TB) leukemia) was > 100 µM and the TGI (HOP-62 NSCLC) was > 100 µM. The TGI (HS 578T breast) was > 100 µM, the TGI (HT29 colon) was > 100 µM and the TGI (IGROV1 ovarian) was > 100 µM. The TGI (K-562 leukemia) was > 100 µM, the TGI (KM12 colon) was > 100 µM and the TGI (LOX IMVI melanoma) was > 100 µM. For the same compound, the TGI (M14 melanoma) was > 100 µM, the TGI (MALME-3M melanoma) was > 100 µM and the TGI (MCF7 breast) was > 100 µM. For the same compound, the TGI (MDA-MB-231 breast) was > 100 µM, the TGI (MDA-MB-435) was > 100 µM and the TGI (MDA-N) was > 100 µM. For the same compound, the TGI (MOLT-4 leukemia) was > 100 µM, the TGI (NCI-H226 lung) was > 100 µM and the TGI (NCI-H23 lung) was > 100 µM. For the same compound, the TGI (NCI-H460 lung) was > 100 µM, the TGI (NCI-H522 lung) was > 100 µM and the TGI (NCI/ADR-RES ovarian) was > 100 µM. The TGI (OVCAR-3 ovarian) was > 100 µM, the TGI (OVCAR-4 ovarian) was > 100 µM and the TGI (OVCAR-5 ovarian) was > 100 µM. The TGI (OVCAR-8 ovarian) was > 100 µM, the TGI (PC-3 prostate) was > 100 µM and the TGI (RPMI-8226 leukemia) was > 100 µM. The TGI (SF-268 CNS) was > 100 µM, the TGI (SF-295 CNS) was > 100 µM and the TGI (SF-539 CNS) was > 100 µM. The TGI (SK-MEL-2 melanoma) was > 100 µM, the TGI (SK-MEL-28 melanoma) was > 100 µM and the TGI (SK-MEL-5 melanoma) was > 100 µM. The TGI (SK-OV-3 ovarian) was > 100 µM, the TGI (SN12C renal) was > 100 µM and the TGI (SNB-19 CNS) was > 100 µM. For the same compound, the TGI (SNB-75 CNS) was > 100 µM, the TGI (SR leukemia) was > 100 µM and the TGI (SW-620 colon) was > 100 µM. For the same compound, the TGI (T-47D breast) was > 100 µM, the TGI (TK-10 renal) was > 100 µM and the TGI (U251 CNS) was > 100 µM. The TGI (UACC-62 melanoma) was > 100 µM and the TGI (UO-31 renal) was > 100 µM.
`CC(=O)OCC1OC(Nc2ccc3nc(C)n(-c4ccccc4)c(=O)c3c2)C(OC(C)=O)C(OC(C)=O)C1OC(C)=O` (stereo unspecified) was tested, and the TGI (786-0 renal) was > 50 µM, the TGI (A498 renal) was > 50 µM and the TGI (ACHN renal) was > 50 µM. The TGI (BT-549 breast) was > 50 µM, the TGI (CAKI-1 renal) was > 50 µM and the TGI (COLO 205 colon) was > 50 µM. The TGI (DU-145 prostate) was > 50 µM, the TGI (EKVX NSCLC) was > 50 µM and the TGI (HCC-2998 colon) was > 50 µM. For the same compound, the TGI (HCT-116 colon) was > 50 µM, the TGI (HCT-15 colon) was > 50 µM and the TGI (HL-60(TB) leukemia) was > 50 µM. For the same compound, the TGI (HOP-62 NSCLC) was > 50 µM, the TGI (HS 578T breast) was > 50 µM and the TGI (HT29 colon) was > 50 µM. For the same compound, the TGI (IGROV1 ovarian) was > 50 µM, the TGI (K-562 leukemia) was > 50 µM and the TGI (KM12 colon) was > 50 µM. The TGI (LOX IMVI melanoma) was > 50 µM, the TGI (MALME-3M melanoma) was > 50 µM and the TGI (MCF7 breast) was > 50 µM. The TGI (MDA-MB-231 breast) was > 50 µM, the TGI (MDA-MB-435) was > 50 µM and the TGI (MDA-N) was > 50 µM. For the same compound, the TGI (MOLT-4 leukemia) was > 50 µM, the TGI (NCI-H226 lung) was > 50 µM and the TGI (NCI-H23 lung) was > 50 µM. The TGI (NCI-H460 lung) was > 50 µM, the TGI (NCI-H522 lung) was > 50 µM and the TGI (NCI/ADR-RES ovarian) was > 50 µM. The TGI (OVCAR-3 ovarian) was > 50 µM, the TGI (OVCAR-4 ovarian) was > 50 µM and the TGI (OVCAR-5 ovarian) was > 50 µM. For the same compound, the TGI (OVCAR-8 ovarian) was > 50 µM, the TGI (PC-3 prostate) was > 50 µM and the TGI (RPMI-8226 leukemia) was 20.4 µM. For the same compound, the TGI (RXF 393 renal) was > 50 µM, the TGI (SF-268 CNS) was > 50 µM and the TGI (SF-295 CNS) was > 50 µM. For the same compound, the TGI (SK-MEL-2 melanoma) was > 50 µM, the TGI (SK-MEL-28 melanoma) was > 50 µM and the TGI (SK-MEL-5 melanoma) was > 50 µM. The TGI (SN12C renal) was > 50 µM, the TGI (SNB-19 CNS) was > 50 µM and the TGI (SNB-75 CNS) was > 50 µM. For the same compound, the TGI (SR leukemia) was > 50 µM, the TGI (SW-620 colon) was > 50 µM and the TGI (T-47D breast) was > 50 µM. The TGI (TK-10 renal) was > 50 µM, the TGI (U251 CNS) was > 50 µM and the TGI (UACC-257 melanoma) was > 50 µM. For the same compound, the TGI (UACC-62 melanoma) was > 50 µM and the TGI (UO-31 renal) was > 50 µM.
